The text below walks through data of patent US20090233976A1, “Antimitotic Rhizoxin Deritivatives of Burkholderia Rhizoxina, Method for Producing Said Derivatives and Use Thereof” (priority 2005, published 2009).

≈ marks a conversion by molar mass, not a printed value.

The subject of one series is human cancer cell lines. The settings on record: a number of human cancer cell lines, particularly vincristin-resistent cells; cited from earlier work.
In series [1] the test system is K-562 human leukemia cells. As to the kind of experiment: antiproliferative test on K-562 human leukemia cells. As to conditions: K562. Format: cell-based. The text has this: (§1) The inventive substances 1-4 show very strong antiproliferative and cytotoxic effects (e.g. for L-929 mouse fibroblast, K-562 human leukemia cells and HeLa human cervix carcinoma line) and an antifungal activity (e.g. against Glomerella cingulata, Penicillium notatum, Fusarium culmorum, Hamigera avellanea, Aspergillus fumigatus). (See Table 1.)
(§2) The examination of the antiproliferative and cytotoxic properties of the substances 1-4 has been performed via the method described in the literature (H. M. Dahse, B. Schlegel, U. Gräfe, Pharmazie 2001, 56, 489-491). The antifungal activity has been determined via the agar diffusion test. (See Table 2.)

Series [2] in a line: cytotoxicity test on HeLa human cervix carcinoma line. Format: cell-based. The settings on record: HeLa human cervix carcinoma cells, cytotoxic.
Source text: as §1, §2

The test system of the next series is L-929 mouse fibroblast. As to the kind of experiment: antiproliferative test on L-929 mouse fibroblasts. Format: cell-based. The settings on record: L929.
Source text: as §1, §2

Turning to `CO[C@@H](/C(C)=C/C=C/C(C)=C/c1coc(C)n1)[C@@H](C)[C@@H]1C[C@H](O)[C@@]2(C)O[C@@H]2/C=C/[C@@H](C)[C@H]2C[C@H](CC(=O)O2)C[C@@H]2O[C@H]2C(=O)O1` [Rhizoxin], in the series with human cancer cell lines, the “activity against human cancer cell lines” value was “high activity”.
By GI50 is commonly meant the concentration that inhibits growth by half. Low values mean more potent growth inhibition, high ones less potent growth inhibition. What is called CC50 is the concentration at which the toxic effect on the cells reaches its halfway point. A high value points to better tolerance by the cells. The compound `CC(/C=C/C=C(\C)[C@H](O)[C@@H](C)C1C[C@H](O)C2(C)O[C@@H]2/C=C/[C@@H](C)[C@H](O)C[C@H](CC(=O)O)C/C=C/C(=O)O1)=C\c1coc(C)n1` (some centres unmarked) [Substance 1] came in with a GI50 in series [1] of 15 ng/mL (≈ 24.4 nM). In series [2], this compound came in with a CC50 of 90 ng/mL (≈ 147 nM).
With `COC(=O)C[C@@H]1C/C=C/C(=O)OC([C@H](C)[C@@H](O)/C(C)=C/C=C/C(C)=C/c2coc(C)n2)C[C@H](O)C2(C)O[C@@H]2/C=C/[C@@H](C)[C@H](O)C1` (some centres unmarked) [Substance 2], the GI50 in series [1] turned out to be 0.03 ng/mL (≈ 0.0478 nM); in the series on L-929 mouse fibroblast it was 50 ng/mL (≈ 79.6 nM). It took 0.28 ng/mL (≈ 0.446 nM) to reach half-maximal cytotoxicity in series [2] (CC50).
Consider `COC(=O)C[C@@H]1C/C=C/C(=O)OC([C@H](C)[C@@H](OC)/C(C)=C/C=C/C(C)=C/c2coc(C)n2)C[C@H](O)C2(C)O[C@@H]2/C=C/[C@@H](C)[C@H](O)C1` (some centres unmarked) [Substance 3], for which the GI50 in series [1] is less than 0.03 ng/mL; in the series on L-929 mouse fibroblast, 50 ng/mL (≈ 77.9 nM). In addition, in series [2], the CC50 is less than 0.03 ng/mL.
For `COC(=O)C[C@@H]1C/C=C/C(=O)OC([C@H](C)[C@@H](OC)/C(C)=C/C=C/C(C)=C\c2coc(C)n2)C[C@H](O)C2(C)O[C@@H]2/C=C/[C@@H](C)[C@H](O)C1` (some centres unmarked) [Substance 4], the GI50 in series [1] was less than 0.03 ng/mL; in the series with L-929 mouse fibroblast, 12 ng/mL (≈ 18.7 nM).
